From ChEMBL document CHEMBL1201862, “PubChem BioAssay data set” (2004)
Each block holds one compound with its values, some of them ahead of it. Active and inactive are the calls of the source.

Legend:
[1] = molecular target: Heat shock protein HSP 90-alpha (Homo sapiens, UniProt P07900); assay type: functional, organism-based
[2] = tested on: Vero; assay: Vero cell cytotoxicity, cytotoxicity control for flavivirus capping enzyme inhibitors (AID 588742); assay type: functional; conditions: Chlorocebus sabaeus
[3] = molecular target: Genome polyprotein (dengue virus type 2, UniProt P29990); assay: Dengue-2 NS5 methyltransferase inhibitors, primary screen, biochemical, confirmation dose response (AID 588689); assay type: functional
[4] = molecular target: T1, Cytochrome P450 2C9 (Homo sapiens, UniProt P11712); conditions: Potency
[5] = molecular target: Cytochrome P450 2D6 (Homo sapiens, UniProt P10635);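 further: CYP2D6 member of a cytochrome P450 panel assay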
[6] = molecular target: T1, Cytochrome P450 2C9
[7] = insulin promoter down-regulators in MIN6 cells, imaging, high-content screening, mouse beta cells (AID 1628); assay type: functional
[8] = cytotoxicity in MIN6 insulinoma cells, dose response, cytotoxicity control, cell-based, mouse insulinoma (AID 2122); assay type: functional;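 further: confirmatory high-throughput counterscreen run to flag cytotoxic compounds; mouse MIN-6 beta cells carrying an insulin promoter eGFP reporter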
[9] = molecular target: T2, Nucleotide-binding oligomerization domain-containing protein 1 (Homo sapiens, UniProt Q9Y239); assay: SAR analysis of NF-kappaB dependent luciferase using DAP as an inducer - Set 2. [Related pubchem assays (depositor defined):AID1566, AID1575, AID1578, AID1579, AID1849, AID1852, AID2264]; assay type: functional
T2 sequence (Q9Y239 whole entry): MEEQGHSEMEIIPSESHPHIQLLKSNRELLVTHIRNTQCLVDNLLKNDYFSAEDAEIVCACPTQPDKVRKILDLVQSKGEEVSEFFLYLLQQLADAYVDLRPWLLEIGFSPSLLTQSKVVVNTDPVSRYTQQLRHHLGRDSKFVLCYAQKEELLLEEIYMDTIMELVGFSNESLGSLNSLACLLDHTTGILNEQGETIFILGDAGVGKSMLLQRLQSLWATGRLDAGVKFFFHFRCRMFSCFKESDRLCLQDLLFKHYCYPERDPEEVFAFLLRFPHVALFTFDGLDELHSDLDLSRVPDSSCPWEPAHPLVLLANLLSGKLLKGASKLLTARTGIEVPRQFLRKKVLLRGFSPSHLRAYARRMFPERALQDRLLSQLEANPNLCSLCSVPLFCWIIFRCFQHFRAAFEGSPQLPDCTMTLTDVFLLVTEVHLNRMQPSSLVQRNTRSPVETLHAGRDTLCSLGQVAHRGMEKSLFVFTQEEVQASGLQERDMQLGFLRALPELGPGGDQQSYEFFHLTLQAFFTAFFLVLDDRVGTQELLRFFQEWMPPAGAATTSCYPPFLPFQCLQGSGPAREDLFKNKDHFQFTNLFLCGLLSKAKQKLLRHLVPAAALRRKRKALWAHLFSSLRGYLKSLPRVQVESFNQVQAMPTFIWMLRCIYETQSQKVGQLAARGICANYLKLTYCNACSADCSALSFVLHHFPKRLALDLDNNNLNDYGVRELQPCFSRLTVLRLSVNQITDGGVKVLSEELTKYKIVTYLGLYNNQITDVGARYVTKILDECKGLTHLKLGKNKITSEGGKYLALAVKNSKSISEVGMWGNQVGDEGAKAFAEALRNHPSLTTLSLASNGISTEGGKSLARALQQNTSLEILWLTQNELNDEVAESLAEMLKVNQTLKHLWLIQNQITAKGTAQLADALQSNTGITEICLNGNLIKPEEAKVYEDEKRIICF

[10] = molecular target: T3, Interleukin-8 (Homo sapiens, UniProt P10145); assay: SAR analysis of Tumor necrosis factor alpha (TNF-alpha) induced IL-8 secretion in MCF-7/NOD1 cells - Set 2. [Related pubchem assays (depositor defined):AID1575, AID2250, AID2260]; assay type: functional, cell-based
T3 sequence (P10145 whole entry): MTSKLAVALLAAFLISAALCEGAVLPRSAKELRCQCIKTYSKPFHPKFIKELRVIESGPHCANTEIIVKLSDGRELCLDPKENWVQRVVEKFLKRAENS

[11] = molecular target: T3, Interleukin-8; assay: SAR analysis of GM-Tri-DAP induced IL-8 secretion in MCF-7/NOD1 cells - Set 2. [Related pubchem assays (depositor defined):AID1575, AID1578, AID2333]; assay type: functional, cell-based
[12] = molecular target: T4, Nucleotide-binding oligomerization domain-containing protein 2 (Homo sapiens, UniProt Q9HC29); assay: NOD2 inhibitors, SAR follow-up, set 2 (AID 2475); assay type: functional
[13] = tested on: HEK293; assay: SAR analysis of compounds that are cytotoxic to HEK293 - Set 2. [Related pubchem assays (depositor defined):AID1575, AID1578, AID1849, AID2001, AID2333, AID2334, AID2335, AID2337, AID2800]; assay type: functional, cell-based; conditions: Homo sapiens
[14] = molecular target: T2, Nucleotide-binding oligomerization domain-containing protein 1; assay: SAR analysis of compounds that inhibit NOD1 - Set 2. [Related pubchem assays (depositor defined):AID1566, AID1575, AID1578, AID1849, AID1852, AID2333, AID2335, AID2798]; assay type: functional
[15] = molecular target: T2, Nucleotide-binding oligomerization domain-containing protein 1; assay: SAR analysis of compounds that inhibit NOD1 - Set 3. [Related pubchem assays (depositor defined):AID1566, AID1575, AID1578, AID1849, AID1852, AID2333, AID2335, AID2466]; assay type: functional
[16] = molecular target: Tumor necrosis factor (Homo sapiens, UniProt P01375); assay: TNFa-triggered NF-kB activation inhibitors, SAR follow-up, cell-based, set 3 (AID 2801); assay type: functional
[17] = tested on: HEK293; assay: SAR analysis of compounds that are cytotoxic to HEK293 - Set 3. [Related pubchem assays (depositor defined):AID1575, AID1578, AID1848, AID1849, AID2001, AID2333, AID2334, AID2335, AID2337, AID2469]; assay type: functional, cell-based; conditions: Homo sapiens
[18] = molecular target: T4, Nucleotide-binding oligomerization domain-containing protein 2; assay: NOD2 signaling inhibitors, analog potency, SAR follow-up, cell-based, set 3 (AID 2799); assay type: functional
[19] = tested on: HEK293; assay: cells; conditions: Homo sapiens
[20] = tested on: HEK293; assay: cells; conditions: Homo sapiens; remark: listed apart in the source
[21] = molecular target: SUMO E1/E2 (Homo sapiens, UniProt P63279+Q9UBE0+Q9UBT2); assay: SAR analysis of SUMOylation using HTRF in an in-Vitro dose response assay. [Related pubchem assays (depositor defined):AID2006, AID2011, AID2018, AID2069, AID2658]; assay type: functional
[22] = molecular target: T5, Cytochrome P450 1A2 (Homo sapiens, UniProt P05177);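 further: PubChem cytochrome P450 panel assay, CYP1A2 panel member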
T5 sequence (P05177 whole entry): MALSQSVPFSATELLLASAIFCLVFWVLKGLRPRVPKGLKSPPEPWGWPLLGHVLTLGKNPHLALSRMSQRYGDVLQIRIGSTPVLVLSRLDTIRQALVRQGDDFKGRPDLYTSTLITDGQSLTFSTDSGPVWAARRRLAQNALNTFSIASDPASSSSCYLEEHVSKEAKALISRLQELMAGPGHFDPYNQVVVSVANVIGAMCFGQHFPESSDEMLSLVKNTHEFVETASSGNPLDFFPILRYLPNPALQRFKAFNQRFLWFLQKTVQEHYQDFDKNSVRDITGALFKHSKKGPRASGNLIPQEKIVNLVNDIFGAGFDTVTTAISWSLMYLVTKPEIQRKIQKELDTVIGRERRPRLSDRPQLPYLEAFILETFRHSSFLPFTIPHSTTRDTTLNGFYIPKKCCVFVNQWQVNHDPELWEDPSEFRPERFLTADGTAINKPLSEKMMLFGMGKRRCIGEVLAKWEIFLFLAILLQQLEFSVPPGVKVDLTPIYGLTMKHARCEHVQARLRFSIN

[23] = molecular target: T1, Cytochrome P450 2C9; remark: listed apart in the source
[24] = molecular target: Cytochrome P450 3A4 (Homo sapiens, UniProt P08684);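 further: CYP3A4 tested as one member of a cytochrome P450 panel screen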
[25] = growth suppression of PTEN-null colon cells, dose response, cell-based, HCT116 PTEN knockout (AID 1047); assay type: functional;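 further: HCT116 colon tumor cells with PTEN knocked out; cells exposed to compound for 60 hours before readout; potency for loss of cell viability measured by luminescence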
[26] = growth suppression of beta-catenin-knockout colon cells, dose response, cell-based, HCT116, human colon tumor (AID 1045); assay type: functional;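 further: HCT116 colon tumor cells with beta catenin knocked out; cells exposed to compound for 60 hours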
[27] = molecular target: Cytochrome P450 2C19 (Homo sapiens, UniProt P33261); assay: Cytochrome panel assay with activity outcomes. Panel member name: p450-cyp2c19 Compounds with AC50 equal or less than 10 uM are considered active; assay type: functional
Chain of Cytochrome P450 2C19 (P33261 whole entry): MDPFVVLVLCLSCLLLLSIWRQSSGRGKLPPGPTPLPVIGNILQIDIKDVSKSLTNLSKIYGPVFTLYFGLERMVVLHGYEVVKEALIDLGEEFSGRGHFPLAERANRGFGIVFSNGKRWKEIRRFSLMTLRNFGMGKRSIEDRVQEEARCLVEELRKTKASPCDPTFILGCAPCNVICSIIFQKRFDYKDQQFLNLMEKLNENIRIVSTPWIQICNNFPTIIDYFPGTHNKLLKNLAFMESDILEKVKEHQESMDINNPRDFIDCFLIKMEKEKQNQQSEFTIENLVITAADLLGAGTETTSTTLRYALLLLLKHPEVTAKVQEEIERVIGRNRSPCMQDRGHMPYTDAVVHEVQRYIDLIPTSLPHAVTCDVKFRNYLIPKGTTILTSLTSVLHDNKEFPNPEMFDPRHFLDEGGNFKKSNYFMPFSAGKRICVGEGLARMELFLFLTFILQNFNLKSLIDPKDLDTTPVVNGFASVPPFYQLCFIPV

T1 sequence (P11712 whole entry): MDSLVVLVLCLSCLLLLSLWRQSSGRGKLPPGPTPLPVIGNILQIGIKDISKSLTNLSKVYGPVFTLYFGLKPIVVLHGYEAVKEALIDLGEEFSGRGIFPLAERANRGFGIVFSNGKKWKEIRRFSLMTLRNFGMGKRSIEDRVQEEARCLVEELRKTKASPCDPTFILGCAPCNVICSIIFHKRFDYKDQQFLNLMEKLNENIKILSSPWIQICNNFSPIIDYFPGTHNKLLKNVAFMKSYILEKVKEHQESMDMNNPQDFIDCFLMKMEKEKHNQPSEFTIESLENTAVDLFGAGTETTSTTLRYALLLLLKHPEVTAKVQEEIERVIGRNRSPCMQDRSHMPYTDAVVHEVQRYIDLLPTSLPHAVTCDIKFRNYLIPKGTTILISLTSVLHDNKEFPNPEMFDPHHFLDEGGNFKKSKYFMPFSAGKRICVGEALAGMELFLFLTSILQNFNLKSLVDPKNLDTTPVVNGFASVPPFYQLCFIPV
T4 sequence (Q9HC29 whole entry, the tested form may be a part): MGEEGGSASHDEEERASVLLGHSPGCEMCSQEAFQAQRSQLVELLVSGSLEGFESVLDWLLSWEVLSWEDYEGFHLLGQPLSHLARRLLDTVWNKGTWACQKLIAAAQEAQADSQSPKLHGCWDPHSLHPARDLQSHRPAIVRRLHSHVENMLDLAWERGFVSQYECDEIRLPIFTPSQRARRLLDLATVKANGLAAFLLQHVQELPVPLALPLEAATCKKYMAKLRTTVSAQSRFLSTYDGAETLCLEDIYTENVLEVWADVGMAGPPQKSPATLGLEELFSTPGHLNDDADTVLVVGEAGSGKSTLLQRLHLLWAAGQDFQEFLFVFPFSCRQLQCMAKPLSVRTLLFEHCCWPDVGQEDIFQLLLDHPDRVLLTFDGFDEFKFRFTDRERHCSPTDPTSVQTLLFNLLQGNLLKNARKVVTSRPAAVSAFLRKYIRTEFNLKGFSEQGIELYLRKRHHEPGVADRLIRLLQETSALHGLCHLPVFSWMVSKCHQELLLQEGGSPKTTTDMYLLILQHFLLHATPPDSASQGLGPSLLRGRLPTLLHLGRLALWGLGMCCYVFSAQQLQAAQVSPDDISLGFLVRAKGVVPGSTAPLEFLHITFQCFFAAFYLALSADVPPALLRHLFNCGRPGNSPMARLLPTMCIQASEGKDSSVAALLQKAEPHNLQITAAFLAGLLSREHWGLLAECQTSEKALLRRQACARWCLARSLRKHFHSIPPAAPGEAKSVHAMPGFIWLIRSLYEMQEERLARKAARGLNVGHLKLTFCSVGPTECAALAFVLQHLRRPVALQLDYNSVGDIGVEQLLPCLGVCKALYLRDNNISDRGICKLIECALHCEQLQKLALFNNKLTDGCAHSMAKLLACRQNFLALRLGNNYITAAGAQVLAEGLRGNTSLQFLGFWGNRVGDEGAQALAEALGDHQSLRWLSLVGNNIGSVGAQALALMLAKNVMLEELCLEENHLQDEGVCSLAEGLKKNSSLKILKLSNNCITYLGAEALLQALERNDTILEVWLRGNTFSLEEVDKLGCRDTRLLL
Chain of Cytochrome P450 2D6 (P10635 whole entry): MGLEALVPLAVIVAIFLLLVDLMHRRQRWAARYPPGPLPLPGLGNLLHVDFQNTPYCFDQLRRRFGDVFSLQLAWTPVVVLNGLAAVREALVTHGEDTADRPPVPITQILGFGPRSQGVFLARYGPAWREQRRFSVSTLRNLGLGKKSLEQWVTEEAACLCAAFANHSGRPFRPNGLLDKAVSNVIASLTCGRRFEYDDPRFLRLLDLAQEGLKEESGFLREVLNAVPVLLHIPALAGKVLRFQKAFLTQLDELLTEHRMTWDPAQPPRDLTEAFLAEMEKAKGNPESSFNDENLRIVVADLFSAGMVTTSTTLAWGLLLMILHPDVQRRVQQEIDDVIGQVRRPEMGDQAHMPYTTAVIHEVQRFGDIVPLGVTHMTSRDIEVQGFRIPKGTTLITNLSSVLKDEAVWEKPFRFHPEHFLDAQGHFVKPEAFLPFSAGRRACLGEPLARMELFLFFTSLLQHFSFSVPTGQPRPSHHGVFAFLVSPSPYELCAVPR
Chain of SUMO E1/E2 (Q9UBE0 whole entry): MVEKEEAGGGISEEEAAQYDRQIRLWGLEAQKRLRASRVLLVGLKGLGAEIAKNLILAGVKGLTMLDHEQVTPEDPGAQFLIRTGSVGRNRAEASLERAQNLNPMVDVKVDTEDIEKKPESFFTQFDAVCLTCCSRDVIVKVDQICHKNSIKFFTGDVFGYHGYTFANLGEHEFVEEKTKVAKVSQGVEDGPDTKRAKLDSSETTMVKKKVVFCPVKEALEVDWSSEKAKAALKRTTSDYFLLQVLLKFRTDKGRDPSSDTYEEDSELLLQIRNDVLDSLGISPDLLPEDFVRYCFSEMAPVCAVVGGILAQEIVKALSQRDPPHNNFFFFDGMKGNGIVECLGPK
Chain of SUMO E1/E2 (Q9UBT2 whole entry): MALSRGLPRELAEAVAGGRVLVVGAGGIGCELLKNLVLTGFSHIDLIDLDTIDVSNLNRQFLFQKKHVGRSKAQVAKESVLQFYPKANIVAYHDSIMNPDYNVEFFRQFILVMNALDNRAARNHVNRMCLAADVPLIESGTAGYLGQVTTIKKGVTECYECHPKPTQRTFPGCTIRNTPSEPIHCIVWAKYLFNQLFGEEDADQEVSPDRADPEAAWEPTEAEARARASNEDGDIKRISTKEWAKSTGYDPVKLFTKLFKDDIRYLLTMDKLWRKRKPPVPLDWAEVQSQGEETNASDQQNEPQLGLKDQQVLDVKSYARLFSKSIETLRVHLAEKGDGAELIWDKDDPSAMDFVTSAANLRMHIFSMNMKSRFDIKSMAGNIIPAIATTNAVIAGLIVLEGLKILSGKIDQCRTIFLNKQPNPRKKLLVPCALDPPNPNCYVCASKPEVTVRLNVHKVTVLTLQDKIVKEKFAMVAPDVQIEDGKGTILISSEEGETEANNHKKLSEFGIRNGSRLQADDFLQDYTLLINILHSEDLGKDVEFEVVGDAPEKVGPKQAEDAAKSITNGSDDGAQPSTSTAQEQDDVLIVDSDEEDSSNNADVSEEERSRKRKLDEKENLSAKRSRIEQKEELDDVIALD
Chain of SUMO E1/E2 (P63279 whole entry): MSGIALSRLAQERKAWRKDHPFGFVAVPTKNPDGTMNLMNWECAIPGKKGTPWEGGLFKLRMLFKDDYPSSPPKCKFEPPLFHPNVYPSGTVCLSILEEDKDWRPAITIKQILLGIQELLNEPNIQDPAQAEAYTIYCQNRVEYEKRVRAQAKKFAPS
Chain of Tumor necrosis factor (P01375 whole entry): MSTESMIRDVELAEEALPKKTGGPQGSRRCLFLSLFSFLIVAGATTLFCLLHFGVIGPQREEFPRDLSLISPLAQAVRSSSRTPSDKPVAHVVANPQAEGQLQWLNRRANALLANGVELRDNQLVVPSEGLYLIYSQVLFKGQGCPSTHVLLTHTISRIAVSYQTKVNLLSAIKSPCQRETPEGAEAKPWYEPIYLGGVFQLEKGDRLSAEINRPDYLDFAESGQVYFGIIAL
Chain of Genome polyprotein (P29990 2492-3391 limits assumed): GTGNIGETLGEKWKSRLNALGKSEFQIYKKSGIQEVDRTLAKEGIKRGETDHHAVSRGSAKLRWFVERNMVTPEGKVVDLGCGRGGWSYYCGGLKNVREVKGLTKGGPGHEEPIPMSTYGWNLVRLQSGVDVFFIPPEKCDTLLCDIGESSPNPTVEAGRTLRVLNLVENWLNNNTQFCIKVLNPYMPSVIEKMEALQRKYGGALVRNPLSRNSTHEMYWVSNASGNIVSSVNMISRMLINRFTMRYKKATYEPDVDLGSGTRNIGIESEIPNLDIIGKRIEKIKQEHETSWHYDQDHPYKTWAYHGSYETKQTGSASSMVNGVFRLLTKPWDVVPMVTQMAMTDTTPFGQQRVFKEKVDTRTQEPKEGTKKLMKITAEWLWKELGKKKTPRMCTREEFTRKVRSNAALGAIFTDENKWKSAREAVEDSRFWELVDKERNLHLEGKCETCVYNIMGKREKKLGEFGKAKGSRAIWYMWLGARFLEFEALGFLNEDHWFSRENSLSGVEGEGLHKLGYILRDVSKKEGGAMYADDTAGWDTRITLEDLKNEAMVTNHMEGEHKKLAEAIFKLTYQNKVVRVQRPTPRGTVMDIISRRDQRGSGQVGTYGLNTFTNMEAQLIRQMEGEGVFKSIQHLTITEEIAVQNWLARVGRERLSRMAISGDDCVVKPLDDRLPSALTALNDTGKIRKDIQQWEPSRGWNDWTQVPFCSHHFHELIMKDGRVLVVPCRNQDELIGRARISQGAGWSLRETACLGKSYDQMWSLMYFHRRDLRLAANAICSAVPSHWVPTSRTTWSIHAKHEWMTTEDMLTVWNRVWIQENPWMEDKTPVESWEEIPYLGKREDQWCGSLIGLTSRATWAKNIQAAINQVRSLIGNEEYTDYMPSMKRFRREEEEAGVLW

AC50 [1]: 1.34 µM (active) | IC50 [3]: 23.5 µM (active)
Structure (SMILES): CC(=O)N(C(C)=O)N1C(=O)/C(=C/c2ccc(Cl)cc2)SC1=S
CC50 [2]: > 40 µM (active)

Structure (SMILES): COc1cc2c(c(OC)c1OC)-c1ccc(OC)c(=O)cc1[C@H](NC(C)=O)CC2
AC50 [4]: 39.8 µM (inconclusive) | AC50 [5]: inactive | AC50 [6]: inactive

Structure (SMILES): CC(C)Oc1cccc(C(=O)C2CCCN(Cc3cccn3-c3ccccn3)C2)c1 (stereo not given)
IC50 [7]: 3.3 µM (active) | IC50 [8]: 7.53 µM (active)

Structure (SMILES): CCCn1c(SCC(=O)Nc2nc3c(s2)CCCC3)nc2c1c(=O)n(C)c(=O)n2C
IC50 [9]: > 25 µM (inactive) | IC50 [10]: > 25 µM (inactive) | IC50 [11]: > 25 µM (inactive) | IC50 [12]: 1.98 µM (active) | IC50 [13]: > 20 µM (inactive) | IC50 [14]: 1.63 µM (active) | IC50 [15]: 1.36 µM (active) | IC50 [16]: 2.12 µM (active) | IC50 [17]: > 20 µM (inactive) | IC50 [18]: 1.2 µM (active)

Structure (SMILES): CCOC(=O)CN=C(S)N(Cc1cccs1)C1CCCCC1
EC50 [19]: > 59.6 µM (inactive) | EC50 [20]: > 59.6 µM (inactive)

IC50 [21]: 30.1 µM (active)
Structure (SMILES): COc1ccccc1CNC(=O)COC(=O)c1cc(-c2cccs2)nc2ccccc12

AC50 [22]: 15.8 µM (inconclusive) | AC50 [23]: 39.8 µM (inconclusive) | AC50 [24]: inconclusive
Structure (SMILES): c1ccc(C(c2ccccc2)N2CC3(CCNCC3)C2)cc1

Structure (SMILES): COc1ccc(-c2[nH]c(-c3ccc(Cl)cc3)nc2SCC(=O)Nc2nccs2)cc1
EC50 [25]: 15.9 µM (active) | EC50 [26]: 15.3 µM (active) | EC50 [19]: > 59.7 µM (inactive) | EC50 [20]: > 59.7 µM (inactive)

Structure (SMILES): O=C(O)CC1(C(=O)O)CCCCC1
AC50 [27]: inconclusive | AC50 [5]: inconclusive
